Experiments:
[1] = Mutagenicity in Salmonella typhimurium TA100 assessed as mutagenic index at 8.65 uM/plate after 48 hrs in absence of S9 fraction by Ames test relative to control; format: toxicity; conditions: salmonella enterica subsp. enterica serovar typhimurium, s9, 48 h
[2] = Mutagenicity in Salmonella typhimurium TA102 assessed as mutagenic index at 17.30 uM/plate after 48 hrs in absence of S9 fraction by Ames test relative to control; format: toxicity; conditions: salmonella enterica subsp. enterica serovar typhimurium, s9, 48 h, 17.3 µM
[3] = system: Rattus norvegicus; assay: Antidiabetic activity in STZ-induced diabetic Wistar rat blood assessed as HDL level at 15 mg/kg, po administered for 15 days (reference value: 36.31 +/- 0.51 mg/dl); format: functional
[4] = Mutagenicity in Salmonella typhimurium TA98 assessed as mutagenic index at 17.30 uM/plate after 48 hrs in presence of S9 fraction by Ames test relative to control; format: toxicity, subcellular; conditions: salmonella enterica subsp. enterica serovar typhimurium, s9, 48 h, 17.3 µM
[5] = Mutagenicity in Salmonella typhimurium TA102 assessed as mutagenic index at 34.60 uM/plate after 48 hrs in absence of S9 fraction by Ames test relative to control; format: toxicity; conditions: salmonella enterica subsp. enterica serovar typhimurium, s9, 48 h, 34.6 µM
[6] = system: Rattus norvegicus; assay: Antidiabetic activity in STZ-induced diabetic Wistar rat assessed as change in fasting blood glucose level at 15 mg/kg, po administered for 7 days post STZ challenge measured on day 14 by glucometry (reference value: 72.90 +/- 5.2 mg/dl); format: functional
[7] = Mutagenicity in Salmonella typhimurium TA102 assessed as mutagenic index at 17.30 uM/plate after 48 hrs in presence of S9 fraction by Ames test relative to control; format: toxicity, subcellular; conditions: salmonella enterica subsp. enterica serovar typhimurium, s9, 48 h, 17.3 µM
[8] = Mutagenicity in Salmonella typhimurium TA98 assessed as mutagenic index at 8.65 uM/plate after 48 hrs in absence of S9 fraction by Ames test relative to control; format: toxicity; conditions: salmonella enterica subsp. enterica serovar typhimurium, s9, 48 h
[9] = Mutagenicity in Salmonella typhimurium TA100 assessed as mutagenic index at 34.60 uM/plate after 48 hrs in presence of S9 fraction by Ames test relative to control; format: toxicity, subcellular; conditions: salmonella enterica subsp. enterica serovar typhimurium, s9, 48 h, 34.6 µM
[10] = Mutagenicity in Salmonella typhimurium TA102 assessed as mutagenic index at 34.60 uM/plate after 48 hrs in presence of S9 fraction by Ames test relative to control; format: toxicity, subcellular; conditions: salmonella enterica subsp. enterica serovar typhimurium, s9, 48 h, 34.6 µM
[11] = system: Rattus norvegicus; assay: Antidiabetic activity in STZ-induced diabetic Wistar rat assessed as body weight at 15 mg/kg, po administered on day 7 post STZ challenge measured immediately post dosage (reference value: 319.4 +/- 6.9 g); format: functional
[12] = Mutagenicity in Salmonella typhimurium TA102 assessed as mutagenic index at 50 uM/plate after 48 hrs in absence of S9 fraction by Ames test relative to control; format: toxicity; conditions: salmonella enterica subsp. enterica serovar typhimurium, s9, 48 h
[13] = Mutagenicity in Salmonella typhimurium TA100 assessed as mutagenic index at 100 uM/plate after 48 hrs in presence of S9 fraction by Ames test relative to control; format: toxicity, subcellular; conditions: salmonella enterica subsp. enterica serovar typhimurium, s9, 48 h
[14] = Mutagenicity in Salmonella typhimurium TA98 assessed as mutagenic index at 50 uM/plate after 48 hrs in absence of S9 fraction by Ames test relative to control; format: toxicity; conditions: salmonella enterica subsp. enterica serovar typhimurium, s9, 48 h
[15] = Mutagenicity in Salmonella typhimurium TA100 assessed as mutagenic index at 8.65 uM/plate after 48 hrs in presence of S9 fraction by Ames test relative to control; format: toxicity, subcellular; conditions: salmonella enterica subsp. enterica serovar typhimurium, s9, 48 h
[16] = system: Rattus norvegicus; assay: Antidiabetic activity in STZ-induced diabetic Wistar rat blood assessed as LDL level at 15 mg/kg, po administered for 15 days (reference value: 23.11 +/- 9.82 mg/dl); format: functional
[17] = Mutagenicity in Salmonella typhimurium TA98 assessed as mutagenic index at 100 uM/plate after 48 hrs in presence of S9 fraction by Ames test relative to control; format: toxicity, subcellular; conditions: salmonella enterica subsp. enterica serovar typhimurium, s9, 48 h
[18] = Acute toxicity in ig dosed BALB/c mouse assessed as mortality measured for 14 days; format: organism-based; conditions: in vivo, po
[19] = system: Rattus norvegicus; assay: Antidiabetic activity in STZ-induced diabetic Wistar rat assessed as change in fasting blood glucose level at 15 mg/kg, po administered for 15 days post STZ challenge measured on day 21 by glucometry (reference value: 72.90 +/- 5.2 mg/dl); format: functional
[20] = system: Rattus norvegicus; assay: Antidiabetic activity in STZ-induced diabetic Wistar rat assessed as increase in fasting blood glucose level at 15 mg/kg, po administered for 15 days post STZ challenge measured on day 21 by glucometry; format: functional
[21] = Mutagenicity in Salmonella typhimurium TA102 assessed as mutagenic index at 50 uM/plate after 48 hrs in presence of S9 fraction by Ames test relative to control; format: toxicity, subcellular; conditions: salmonella enterica subsp. enterica serovar typhimurium, s9, 48 h

Structure (SMILES): CC(=O)O[C@@H]1c2c(ccc3ccc(=O)oc23)OC(C)(C)[C@@H]1OC(C)=O (relative stereo) [QUIANHUCOUMARIN D]
- Ratio [1]: 1.3
- Ratio [2]: 0.7
- Activity [3]: 29.77 mg/dL
- Ratio [4]: 1.2
- Ratio [5]: 1
- Activity [6]: 280.7 mg/dL
- Ratio [7]: 1.2
- Ratio [8]: 0.7
- Ratio [9]: 0.8
- Ratio [10]: 1.4
- Activity [11]: 335.3 g
- Ratio [12]: 1.1
- Ratio [13]: 1
- Ratio [14]: 1.1
- Ratio [15]: 0.9
- Activity [16]: 22.38 mg/dL
- Ratio [17]: 1.4
- LD50 at 336 h [18]: > 2000 mg/kg
- Activity [19]: 128.3 mg/dL
- Activity [20]: 55.35 mg/dL
- Ratio [21]: 1.2

— ChEMBL document CHEMBL4477224, “Antidiabetic effect, antioxidant activity, and toxicity of 3',4'-Di-O-acetyl-cis-khellactone in Streptozotocin-induced diabetic rats” (Bioorg Med Chem Lett, 2016)
